The values below come from patent US20070128217A1 (priority 2003, published 2007).

Assay [1] concerns antibodies in sera from SARS patients (sera 1a, 1b, 2, 6, 37, 62, London, SARS-yellow, SARS-green). Format: binding, human. On the set-up: Binding of serum 6 to linear peptides of protein X1 of SARS-CoV Urbani / Binding of serum 37 to linear peptides of protein X1 of SARS-CoV Urbani / Binding of serum 6 to looped/cyclic peptide (PEPSCAN-ELISA) / Binding of serum 37 to looped/cyclic peptide (PEPSCAN-ELISA) / Binding of serum 37 to looped/cyclic peptides of protein X1 of SARS-CoV Urbani / Binding of serum 6 to linear peptides of protein X2 / Binding of serum 37 to linear peptides of protein X2 / Binding of serum 37 to looped/cyclic peptides of protein X2 of SARS-CoV Urbani / Binding of serum 6 to linear peptides of protein M of SARS-CoV Urbani / Binding of serum 37 to linear peptides of protein M of SARS-CoV Urbani / Binding of serum 6 to looped/cyclic peptides of protein M of SARS-CoV Urbani / Binding of serum 37 to looped/cyclic peptides of protein M of SARS-CoV Urbani / Binding of serum 6 to linear peptides of protein X3 of SARS-CoV Urbani / Binding of serum 37 to linear peptides of protein X3 of SARS-CoV Urbani / Binding of serum 37 to looped/cyclic peptides of protein X3 of SARS-CoV Urbani / Binding of serum 6 to linear peptides of protein X4 of SARS-CoV Urbani / Binding of serum 37 to linear peptides of protein X4 of SARS-CoV Urbani / Binding of serum 37 to looped/cyclic peptides of protein X4 of SARS-CoV Urbani / Binding of serum 6 to linear peptides of protein X5 of SARS-CoV Urbani / Binding of serum 37 to linear peptides of protein X5 of SARS-CoV Urbani / Binding of serum 37 to looped/cyclic peptides of protein X5 of SARS-CoV Urbani / Binding of serum 6 to linear peptides of protein N of SARS-CoV Urbani / Binding of serum 37 to linear peptides of protein N of SARS-CoV Urbani / Binding of serum 6 to linear peptide (PEPSCAN-ELISA) / Binding of serum 1a to looped/cyclic peptides of protein N of SARS-CoV Urbani / Binding of serum 1b to looped/cyclic peptides of protein N of SARS-CoV Urbani / Binding of serum 2 to looped/cyclic peptides of protein N of SARS-CoV Urbani / Binding of serum 6 to looped/cyclic peptides of protein N of SARS-CoV Urbani / Binding of serum 37 to looped/cyclic peptides of protein N of SARS-CoV Urbani / Binding of serum 62 to looped/cyclic peptides of protein N of SARS-CoV Urbani / Binding of serum London to looped/cyclic peptides of protein N of SARS-CoV Urbani / Binding of serum SARS-green to looped/cyclic peptides of protein N of SARS-CoV Urbani: unit not given here.

Assay [2] has as its system rabbit serum obtained by immunizing a rabbit with the SARS-CoV strain Frankfurt 1. Format: binding. The arrangement: Binding of a rabbit serum to linear peptides / Binding of a rabbit serum to looped peptides / Rabbit serum linear peptides / Rabbit serum looped peptides / Binding of a rabbit serum to linear peptides of protein N of SARS-CoV Urbani (Rabbit serum linear peptides) / Binding of a rabbit serum to looped/cyclic peptides of protein N of SARS-CoV Urbani (Rabbit serum looped peptides): unit not given here.

Assay [3] concerns control sera (pooled serum of ten healthy LUMC hospital workers; commercial negative donor pooled serum from the Dutch bloodbank). Format: binding, human. The arrangement: Binding of Control serum LUMC to linear peptides / Binding of Control serum Blood-bank to linear peptides / Binding of Control serum LUMC to looped peptides / Binding of Control Serum Blood-Bank to Looped peptides / Binding of Control serum LUMC to linear peptides of the protein M of SARS-CoV Urbani / Binding of Control serum Blood-bank to linear peptides of the protein M of SARS-CoV Urbani / Binding of Control serum LUMC to looped peptides of the protein M of SARS-CoV Urbani / Binding of Control Serum Blood-Bank to Looped peptides of the protein M of SARS-CoV Urbani: unit not given here.

Consider PKLFIRQEEVQQELY, for which, in assay [1], the “Binding of serum 1a to linear peptides of protein X4 of SARS-CoV Urbani” value was 0.7, the “Binding of serum 1a to looped/cyclic peptides of protein X4 of SARS-CoV Urbani” value was 0.8, the “Binding of serum 1b to linear peptides of protein X4 of SARS-CoV Urbani” value is reported as 0.6 and the “Binding of serum 1b to looped/cyclic peptides of protein X4 of SARS-CoV Urbani” value worked out at 0.6. Moreover, in assay [1], the “Binding of serum 2 to linear peptides of protein X4 of SARS-CoV Urbani” value worked out at 0.4, the “Binding of serum 2 to looped/cyclic peptides of protein X4 of SARS-CoV Urbani” value is 0.5, the “Binding of serum 6 to linear peptides of protein X4 of SARS-CoV Urbani” value was 0.5 and the “Binding of serum 6 to looped/cyclic peptides of protein X4 of SARS-CoV Urbani” value is listed as 0.5. In addition, in assay [1], the “Binding of serum 37 to linear peptides of protein X4 of SARS-CoV Urbani” value amounted to 0.8, the “Binding of serum 37 to looped/cyclic peptides of protein X4 of SARS-CoV Urbani” value was 0.7, the “Binding of serum 62 to linear peptides of protein X4 of SARS-CoV Urbani” value is 0.8 and the “Binding of serum 62 to looped/cyclic peptides of protein X4 of SARS-CoV Urbani” value is reported as 0.6. In assay [1], the “Binding of serum London to linear peptides of protein X4 of SARS-CoV Urbani” value was determined as 0.8, the “Binding of serum London to looped/cyclic peptides of protein X4 of SARS-CoV Urbani” value stood at 0.4, the “Binding of serum SARS-green to linear peptides of protein X4 of SARS-CoV Urbani” value is 0.7 and the “Binding of serum SARS-green to looped/cyclic peptides of protein X4 of SARS-CoV Urbani” value worked out at 0.5. In addition, in assay [1], the “Binding of serum SARS-yellow to linear peptides of protein X4 of SARS-CoV Urbani” value is recorded as 0.8 and the “Binding of serum SARS-yellow to looped/cyclic peptides of protein X4 of SARS-CoV Urbani” value is 0.4. In assay [2], the “Rabbit serum linear peptides” value turned out to be 0.4 and the “Rabbit serum looped peptides” value is 0.4. In assay [3], the “Binding of Control Serum Blood-Bank to Looped peptides” value stood at 0.6, the “Binding of Control serum Blood-bank to linear peptides” value is recorded as 0.7, the “Binding of Control serum LUMC to linear peptides” value came to 0.5 and the “Binding of Control serum LUMC to looped peptides” value turned out to be 0.7.

With PLLYDANYFVCWHTH, in assay [1], the “Binding of serum 1a to linear peptides of protein X1 of SARS-CoV Urbani” value was found to be 0.9, the “Binding of serum 1a to looped/cyclic peptide (PEPSCAN-ELISA)” value stood at 0.6, the “Binding of serum 1b to linear peptides of protein X1 of SARS-CoV Urbani” value came out at 0.8 and the “Binding of serum 1b to looped/cyclic peptide (PEPSCAN-ELISA)” value is 0.6. In assay [1], the “Binding of serum 2 to linear peptides of protein X1 of SARS-CoV Urbani” value is listed as 0.6, the “Binding of serum 2 to looped/cyclic peptide (PEPSCAN-ELISA)” value is 0.4, the “Binding of serum 6 to linear peptides of protein X1 of SARS-CoV Urbani” value came out at 0.6 and the “Binding of serum 6 to looped/cyclic peptide (PEPSCAN-ELISA)” value was 0.4. In assay [1], the “Binding of serum 37 to linear peptides of protein X1 of SARS-CoV Urbani” value is listed as 0.8, the “Binding of serum 37 to looped/cyclic peptide (PEPSCAN-ELISA)” value is reported as 0.7, the “Binding of serum 62 to linear peptides of protein X1 of SARS-CoV Urbani” value was determined as 0.8 and the “Binding of serum 62 to looped/cyclic peptide (PEPSCAN-ELISA)” value amounted to 0.7. For the same sequence, in assay [1], the “Binding of serum London to linear peptides of protein X1 of SARS-CoV Urbani” value came out at 0.4, the “Binding of serum London to looped/cyclic peptide (PEPSCAN-ELISA)” value was 0.2, the “Binding of serum SARS-green to linear peptides of protein X1 of SARS-CoV Urbani” value was 0.4 and the “Binding of serum SARS-green to looped/cyclic peptide (PEPSCAN-ELISA)” value is 0.3. Also, in assay [1], the “Binding of serum SARS-yellow to linear peptides of protein X1 of SARS-CoV Urbani” value turned out to be 0.5 and the “Binding of serum SARS-yellow to looped/cyclic peptide (PEPSCAN-ELISA)” value is listed as 0.4. In assay [2], the “Binding of a rabbit serum to linear peptides” value was 0.1 and the “Binding of a rabbit serum to looped peptides” value was determined as 0.5. In addition, in assay [3], the “Binding of Control Serum Blood-Bank to Looped peptides” value came to 0.6, the “Binding of Control serum Blood-bank to linear peptides” value was 0.7, the “Binding of Control serum LUMC to linear peptides” value came out at 0.6 and the “Binding of Control serum LUMC to looped peptides” value is reported as 0.6.

In the case of PLQASLPFGWLVIGV, in assay [1], the “Binding of serum 1a to linear peptides of protein X1 of SARS-CoV Urbani” value stood at 0.8, the “Binding of serum 1a to looped/cyclic peptide (PEPSCAN-ELISA)” value is listed as 0.5, the “Binding of serum 1b to linear peptides of protein X1 of SARS-CoV Urbani” value was found to be 0.5 and the “Binding of serum 1b to looped/cyclic peptide (PEPSCAN-ELISA)” value is on record as 0.3. For the same sequence, in assay [1], the “Binding of serum 2 to linear peptides of protein X1 of SARS-CoV Urbani” value came to 0.5, the “Binding of serum 2 to looped/cyclic peptide (PEPSCAN-ELISA)” value is given as 0.4, the “Binding of serum 6 to linear peptides of protein X1 of SARS-CoV Urbani” value is on record as 0.5 and the “Binding of serum 6 to looped/cyclic peptide (PEPSCAN-ELISA)” value was found to be 0.4. Besides, in assay [1], the “Binding of serum 37 to linear peptides of protein X1 of SARS-CoV Urbani” value came out at 0.7, the “Binding of serum 37 to looped/cyclic peptide (PEPSCAN-ELISA)” value is given as 0.5, the “Binding of serum 62 to linear peptides of protein X1 of SARS-CoV Urbani” value came out at 0.7 and the “Binding of serum 62 to looped/cyclic peptide (PEPSCAN-ELISA)” value stood at 0.7. Besides, in assay [1], the “Binding of serum London to linear peptides of protein X1 of SARS-CoV Urbani” value is reported as 0.3, the “Binding of serum London to looped/cyclic peptide (PEPSCAN-ELISA)” value is 0.2, the “Binding of serum SARS-green to linear peptides of protein X1 of SARS-CoV Urbani” value stood at 0.4 and the “Binding of serum SARS-green to looped/cyclic peptide (PEPSCAN-ELISA)” value came to 0.3. Besides, in assay [1], the “Binding of serum SARS-yellow to linear peptides of protein X1 of SARS-CoV Urbani” value is 0.6 and the “Binding of serum SARS-yellow to looped/cyclic peptide (PEPSCAN-ELISA)” value is recorded as 0.4. In assay [2], the “Binding of a rabbit serum to linear peptides” value was 0.1 and the “Binding of a rabbit serum to looped peptides” value is listed as 0.4. In assay [3], the “Binding of Control Serum Blood-Bank to Looped peptides” value stood at 0.7, the “Binding of Control serum Blood-bank to linear peptides” value came to 0.8, the “Binding of Control serum LUMC to linear peptides” value was found to be 0.9 and the “Binding of Control serum LUMC to looped peptides” value was 0.5.

Consider PPNVQIHTIDGSSGV, for which, in assay [1], the “Binding of serum 1a to linear peptides of protein X1 of SARS-CoV Urbani” value was found to be 0.6, the “Binding of serum 1a to looped/cyclic peptides of protein X1 of SARS-CoV Urbani” value was determined as 0.5, the “Binding of serum 1b to linear peptides of protein X1 of SARS-CoV Urbani” value was 0.5 and the “Binding of serum 1b to looped/cyclic peptides of protein X1 of SARS-CoV Urbani” value stood at 0.4. In addition, in assay [1], the “Binding of serum 2 to linear peptides of protein X1 of SARS-CoV Urbani” value amounted to 0.4, the “Binding of serum 2 to looped/cyclic peptides of protein X1 of SARS-CoV Urbani” value is 0.3, the “Binding of serum 6 to linear peptides of protein X1 of SARS-CoV Urbani” value is 0.4 and the “Binding of serum 6 to looped/cyclic peptides of protein X1 of SARS-CoV Urbani” value amounted to 0.4. For the same sequence, in assay [1], the “Binding of serum 37 to linear peptides of protein X1 of SARS-CoV Urbani” value is reported as 0.7, the “Binding of serum 37 to looped/cyclic peptides of protein X1 of SARS-CoV Urbani” value was determined as 0.6, the “Binding of serum 62 to linear peptides of protein X1 of SARS-CoV Urbani” value is 0.6 and the “Binding of serum 62 to looped/cyclic peptides of protein X1 of SARS-CoV Urbani” value amounted to 0.5. Also, in assay [1], the “Binding of serum London to linear peptides of protein X1 of SARS-CoV Urbani” value is 0.3, the “Binding of serum London to looped/cyclic peptides of protein X1 of SARS-CoV Urbani” value came to 0.2, the “Binding of serum SARS-green to linear peptides of protein X1 of SARS-CoV Urbani” value amounted to 0.3 and the “Binding of serum SARS-green to looped/cyclic peptides of protein X1 of SARS-CoV Urbani” value was 0.4. Further, in assay [1], the “Binding of serum SARS-yellow to linear peptides of protein X1 of SARS-CoV Urbani” value stood at 0.4 and the “Binding of serum SARS-yellow to looped/cyclic peptides of protein X1 of SARS-CoV Urbani” value is listed as 0.3. Also, in assay [2], the “Binding of a rabbit serum to linear peptides” value was 0.1 and the “Binding of a rabbit serum to looped peptides” value is 0.5. Besides, in assay [3], the “Binding of Control Serum Blood-Bank to Looped peptides” value was 0.5, the “Binding of Control serum Blood-bank to linear peptides” value stood at 0.5, the “Binding of Control serum LUMC to linear peptides” value is reported as 0.5 and the “Binding of Control serum LUMC to looped peptides” value is reported as 0.7.
